Source: ChEMBL document CHEMBL6083259, “Discovery of quinazoline-benzothiazole derivatives as novel potent protease-activated receptor 4 antagonists with improved pharmacokinetics and low bleeding liability” (Eur J Med Chem, 2024)

Experiments:
[1] = target: T1, Proteinase-activated receptor 4 (Homo sapiens) (UniProt Q96RI0); assay: Antagonist activity at PAR4 in human platelet rich plasma assessed as inhibition of gamma-PAR4 agonist peptide (AYPGKF-NH2)-induced platelet aggregation at 200 nM preincubated for 5 mins followed by peptide addition and measured after 5 mins by aggregometer relative to control; assay type: cell-based; conditions: time 10.0 min
T1 sequence (whole entry): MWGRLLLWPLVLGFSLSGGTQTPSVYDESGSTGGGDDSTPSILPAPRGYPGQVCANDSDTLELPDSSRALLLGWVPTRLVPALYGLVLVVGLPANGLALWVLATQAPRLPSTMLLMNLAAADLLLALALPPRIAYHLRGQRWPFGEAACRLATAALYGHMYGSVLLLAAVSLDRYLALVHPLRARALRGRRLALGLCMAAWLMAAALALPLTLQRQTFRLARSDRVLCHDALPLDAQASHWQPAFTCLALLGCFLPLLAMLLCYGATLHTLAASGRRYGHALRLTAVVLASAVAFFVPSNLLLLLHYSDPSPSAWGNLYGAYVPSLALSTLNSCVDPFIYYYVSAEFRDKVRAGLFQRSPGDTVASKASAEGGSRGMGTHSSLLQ

[2] = Toxicity in male C57BL/6 mouse assessed as prolongation of bleeding time at 10 mg/kg, po measured after 1.5 hrs by tail bleeding assay; assay type: organism-based; conditions: in vivo

Compound	inhibition ([1]; filed as antagonist) [%]	other results
COCOc1ncc2c(-c3nc4c(F)cc(OC)cc4s3)cc(C)cc2n1	77.4	
COc1cc(Cl)c2nc(-c3cc(C)cc4cnc(OC(C)C)nc34)sc2c1		inhibition [1]: 26.3%
COCOc1ncc2c(-c3nc4c(Cl)cc(OC)cc4s3)cc(C)cc2n1	83.8	
COc1cc(C)c2nc(-c3cc(C)cc4nc(OC)ncc34)sc2c1	70.2	
COc1ncc2c(-c3nc4cc(F)c(OCCO)cc4s3)cc(C)cc2n1	84.1	
COc1cc(Cl)c2nc(-c3cc(C)cc4cnc(N5CCOCC5)nc34)sc2c1	52.3	
COc1ccc2nc(-c3cc(C)cc4nc(OC)ncc34)sc2c1	77.4	
COc1cc(F)c2nc(-c3cc(C)cc4nc(OC)ncc34)sc2c1	78.8	
COc1cc(Cl)c2nc(-c3cc(C)cc4cnc(N5CCCCC5)nc34)sc2c1		inhibition [1]: 39.5%
COCc1ncc2c(-c3nc4cc(F)c(OCCOC(=O)N5CCOCC5)cc4s3)cc(C)cc2n1		inhibition [1]: 34.5%
CCOc1ncc2c(-c3nc4cc(F)c(OC)cc4s3)cc(C)cc2n1	40.4	
COc1ncc2c(-c3nc4cc(F)c5c(c4s3)C[C@H](COC(=O)N3CCOCC3)O5)cc(C)cc2n1	64.7	
COc1cc(Cl)c2nc(-c3cc(C)cc4cnc(C)nc34)sc2c1	85.7	
COc1cc(Cl)c2nc(-c3cc(C)cc4cncnc34)sc2c1	82.3	
COc1ncc2c(-c3nc4cc(F)c5c(c4s3)C[C@@H](COC(=O)N3CCOCC3)O5)cc(C)cc2n1	47.6	
COc1ccc2nc(-c3cc(C)cc4nc(SC)ncc34)sc2c1	62.3	
COCc1ncc2c(-c3nc4cc(F)c(OCCOC(=O)Nc5ccc(C(=O)N6CCOCC6)cc5)cc4s3)cc(C)cc2n1	67.1	
COc1cc(OC)c2nc(-c3cc(C)cc4nc(OC)ncc34)sc2c1	47.8	
COC(=O)OC[C@H]1Cc2c(c(F)cc3nc(-c4cc(C)cc5nc(OC)ncc45)sc23)O1		inhibition [1]: 34.9%

Compound	inhibition ([1]; filed as antagonist) [%]	other results
COc1ncc2c(-c3nc4cc(F)c5c(c4s3)C[C@H](COC(=O)Nc3ccc(C)cc3)O5)cc(C)cc2n1	79.6	
COc1cc(Cl)c2nc(-c3cc(C)cc4nc(SC)ncc34)sc2c1	68.2	
COc1cc(Cl)c2nc(-c3cc(C)cc4cnc(SC)nc34)sc2c1	69.2	
CNc1ncc2cc(C)cc(-c3nc4c(Cl)cc(OC)cc4s3)c2n1	58.1	
COc1ncc2c(-c3nc4ccccc4s3)cc(C)cc2n1	49.6	
COc1ncc2cc(C)cc(-c3nc4c(C)cc5c(c4s3)OCCO5)c2n1	65.3	
COc1ncc2c(-c3nc4cc(F)c5c(c4s3)C[C@H](COC(=O)Nc3ccc(C)cc3F)O5)cc(C)cc2n1	82.7	
COc1ncc2c(-c3nc4cc(F)c5c(c4s3)C[C@H](COC(=O)Nc3cnc(C)nc3)O5)cc(C)cc2n1		inhibition [1]: 27.5%
COCc1ncc2c(-c3nc4cc(F)c(OCCOC(=O)Nc5cccc(C#N)c5)cc4s3)cc(C)cc2n1	77.1	
COc1ncc2cc(C)cc(-c3nc4c(Cl)cc(Cl)cc4s3)c2n1		inhibition [1]: 34.7%
COc1cc(Cl)c2nc(-c3cc(C)cc4nc(OC(C)C)ncc34)sc2c1		inhibition [1]: 37.7%
COc1ccc2nc(-c3cc(C)cc4nc(OC(C)C)ncc34)sc2c1	42.9	
COc1ncc2c(-c3nc4cc(F)c5c(c4s3)C[C@H](COC(=O)Nc3ccc(OC)c(F)c3)O5)cc(C)cc2n1	59.6	
COc1ccc2nc(-c3cc(C)cc4cnc(OC)nc34)sc2c1	79.8	
CCOc1ncc2cc(C)cc(-c3nc4c(Cl)cc(OC)cc4s3)c2n1		inhibition [1]: 36.7%
COc1ncc2c(-c3nc4cc(F)c5c(c4s3)C[C@H](COC(=O)Nc3ccc(C(=O)N4CCOCC4)cc3)O5)cc(C)cc2n1		inhibition [1]: 38.1%
COc1ncc2cc(C)cc(-c3nc4ccccc4s3)c2n1		inhibition [1]: 29.7%
COc1cc(Cl)c2nc(-c3cc(C)cc4cnc(N(C)C)nc34)sc2c1	47.6	
CCOc1ncc2c(-c3nc4c(Cl)cc(OC)cc4s3)cc(C)cc2n1	43.4	

Compound	inhibition ([1]; filed as antagonist) [%]	other results
COc1ncc2c(-c3nc4cc(F)c5c(c4s3)C[C@@H](COC(=O)Nc3ccc(C(=O)N4CCOCC4)cc3)O5)cc(C)cc2n1	61.2	
COc1ccc(NC(=O)OC[C@H]2Cc3c(c(F)cc4nc(-c5cc(C)cc6nc(OC)ncc56)sc34)O2)c(C)c1	55.3	
COCc1ncc2c(-c3nc4cc(F)c(OCCOC(=O)OC)cc4s3)cc(C)cc2n1		inhibition [1]: 35.3%
COc1cc2sc(-c3cc(C)cc4nc(SC)ncc34)nc2cc1F	74.8	
COc1ncc2cc(C)cc(-c3nc4cc(F)c(OC)cc4s3)c2n1	90.2	
COc1cc(Cl)c2nc(-c3cc(C)cc4nc(OC)ncc34)sc2c1	85.2	
COc1cc(F)c2nc(-c3cc(C)cc4cnc(OC)nc34)sc2c1	89.6	
CNc1ncc2c(-c3nc4c(Cl)cc(OC)cc4s3)cc(C)cc2n1	58.7	
CCOc1ncc2c(-c3nc4c(F)cc(OC)cc4s3)cc(C)cc2n1		inhibition [1]: 39.1%
COc1ncc2c(-c3nc4cc(F)c(OC)cc4s3)cc(C)cc2n1	88.3	
COCOc1ncc2c(-c3nc4ccc(OC)cc4s3)cc(C)cc2n1	73.9	
COC(=O)[C@H](c1ccccc1Cl)N1CCc2sccc2C1 [CLOPIDOGREL]		Activity [2]: Toxic
COc1cc(Cl)c2nc(-c3cc(C)cc4cnc(OC)nc34)sc2c1	86.4	
COc1ccc(NC(=O)OC[C@H]2Cc3c(c(F)cc4nc(-c5cc(C)cc6nc(OC)ncc56)sc34)O2)cc1	70.5	
COCOc1ncc2c(-c3nc4cc(F)c(OC)cc4s3)cc(C)cc2n1	86.5	
COc1ncc2c(-c3nc4cc(F)c5c(c4s3)C[C@@H](COC(=O)Nc3cc(F)cc(C#N)c3)O5)cc(C)cc2n1	65.8	
COc1ccc(NC(=O)OC[C@H]2Cc3c(c(F)cc4nc(-c5cc(C)cc6nc(OC)ncc56)sc34)O2)cn1		inhibition [1]: 32.9%
COc1cc(Cl)c2nc(-c3cc(C)cc4cnc(OC(F)F)nc34)sc2c1	74.5	
